Assay results as given in publication PMC9284491 (Nature Communications, 2022).
Entries after “also recorded” stand apart in the source; their conditions may differ.

Assay: Treatment-emergent adverse events (MedDRA, NCI-CTCAE v4.03), safety populations
Type: in vivo, human
Method: Overall safety in Parts A and B was assessed by tabulating TEAEs, coded using the Medical Dictionary for Regulatory Activities (MedDRA) version 22.1, and graded according to NCI-CTCAE v4.03 criteria. TEAEs were classified as related or unrelated to amcenestrant therapy based upon the local investigating physician’s clinical judgment. The safety population included all patients exposed to at least one dose of the study treatment. Results were analyzed using descriptive statistics.

## O=C(O)c1ccc2c(c1)CCCC(c1ccc(Cl)cc1Cl)=C2c1ccc(O[C@H]2CCN(CCCF)C2)cc1 [amcenestrant, 6-(2,4-Dichlorophenyl)−5-[4-[(3S)−1-(3-fluoropropyl)pyrrolidin-3-yl]oxyphenyl]−8,9-dihydro-7H-benzo[7]annulene-2-carboxylic acid]
300 mg BID, 6 participants
  TEAE diarrhea: 3 n
  participants with at least 1 TEAE regardless of relationship: 6 participants
Part A
  TEAE leading to treatment discontinuation: No TEAE led to treatment discontinuation
Part A (n = 16)
  treatment-related TEAE asthenia, patients: 18.8%
  treatment-related TEAE constipation, patients: 18.8%
  treatment-related TEAE decreased appetite, patients: 18.8%
  treatment-related TEAE diarrhea, patients: 25.0%
  treatment-related TEAE hot flush, patients: 31.3%
  treatment-related TEAE nausea, patients: 25.0%
  treatment-related TEAE night sweats, patients: 18.8%
Part A, 20-600 mg QD (N = 16)
  Any TEAE, TEAEs, All grades: 16 (100) n (%)
  Any TEAE, TEAEs, Grade 1: 5 (31.3) n (%)
  Any TEAE, TEAEs, Grade 2: 7 (43.8) n (%)
  Any TEAE, TEAEs, Grade ≥3: 4 (25.0) n (%)
  Any TEAE, Treatment-related TEAEs, All Grades: 13 (81.3) n (%)
  Any TEAE, Treatment-related TEAEs, Grade 1: 10 (62.5) n (%)
  Any TEAE, Treatment-related TEAEs, Grade 2: 3 (18.8) n (%)
  Any TEAE, Treatment-related TEAEs, Grade ≥3: 0 n (%)
  Arthralgia, TEAEs, All grades: 5 (31.3) n (%)
  Arthralgia, TEAEs, Grade 1: 2 (12.5) n (%)
  Arthralgia, TEAEs, Grade 2: 3 (18.8) n (%)
  Arthralgia, TEAEs, Grade ≥3: 0 n (%)
  Arthralgia, Treatment-related TEAEs, All Grades: 2 (12.5) n (%)
  Arthralgia, Treatment-related TEAEs, Grade 1: 1 (6.3) n (%)
  Arthralgia, Treatment-related TEAEs, Grade 2: 1 (6.3) n (%)
  Arthralgia, Treatment-related TEAEs, Grade ≥3: 0 n (%)
  Asthenia, TEAEs, All grades: 4 (25.0) n (%)
  Asthenia, TEAEs, Grade 1: 2 (12.5) n (%)
  Asthenia, TEAEs, Grade 2: 2 (12.5) n (%)
  Asthenia, TEAEs, Grade ≥3: 0 n (%)
  Asthenia, Treatment-related TEAEs, All Grades: 3 (18.8) n (%)
  Asthenia, Treatment-related TEAEs, Grade 1: 3 (18.8) n (%)
  Asthenia, Treatment-related TEAEs, Grade 2: 0 n (%)
  Asthenia, Treatment-related TEAEs, Grade ≥3: 0 n (%)
  Back pain, TEAEs, All grades: 3 (18.8) n (%)
  Back pain, TEAEs, Grade 1: 2 (12.5) n (%)
  Back pain, TEAEs, Grade 2: 0 n (%)
  Back pain, TEAEs, Grade ≥3: 1 (6.3) n (%)
  Back pain, Treatment-related TEAEs, All Grades: 1 (6.3) n (%)
  Back pain, Treatment-related TEAEs, Grade 1: 1 (6.3) n (%)
  Back pain, Treatment-related TEAEs, Grade 2: 0 n (%)
  Back pain, Treatment-related TEAEs, Grade ≥3: 0 n (%)
  Constipation, TEAEs, All grades: 6 (37.5) n (%)
  Constipation, TEAEs, Grade 1: 5 (31.3) n (%)
  Constipation, TEAEs, Grade 2: 1 (6.3) n (%)
  Constipation, TEAEs, Grade ≥3: 0 n (%)
  Constipation, Treatment-related TEAEs, All Grades: 3 (18.8) n (%)
  Constipation, Treatment-related TEAEs, Grade 1: 3 (18.8) n (%)
  Constipation, Treatment-related TEAEs, Grade 2: 0 n (%)
  Constipation, Treatment-related TEAEs, Grade ≥3: 0 n (%)
  Decreased appetite, TEAEs, All grades: 6 (37.5) n (%)
  Decreased appetite, TEAEs, Grade 1: 6 (37.5) n (%)
  Decreased appetite, TEAEs, Grade 2: 0 n (%)
  Decreased appetite, TEAEs, Grade ≥3: 0 n (%)
  Decreased appetite, Treatment-related TEAEs, All Grades: 3 (18.8) n (%)
  Decreased appetite, Treatment-related TEAEs, Grade 1: 3 (18.8) n (%)
  Decreased appetite, Treatment-related TEAEs, Grade 2: 0 n (%)
  Decreased appetite, Treatment-related TEAEs, Grade ≥3: 0 n (%)
  Diarrhea, TEAEs, All grades: 6 (37.5) n (%)
  Diarrhea, TEAEs, Grade 1: 5 (31.3) n (%)
  Diarrhea, TEAEs, Grade 2: 1 (6.3) n (%)
  Diarrhea, TEAEs, Grade ≥3: 0 n (%)
  Diarrhea, Treatment-related TEAEs, All Grades: 4 (25.0) n (%)
  Diarrhea, Treatment-related TEAEs, Grade 1: 3 (18.8) n (%)
  Diarrhea, Treatment-related TEAEs, Grade 2: 1 (6.3) n (%)
  Diarrhea, Treatment-related TEAEs, Grade ≥3: 0 n (%)
  Dyspnea, TEAEs, All grades: 4 (25.0) n (%)
  Dyspnea, TEAEs, Grade 1: 2 (12.5) n (%)
  Dyspnea, TEAEs, Grade 2: 1 (6.3) n (%)
  Dyspnea, TEAEs, Grade ≥3: 1 (6.3) n (%)
  Dyspnea, Treatment-related TEAEs, All Grades: 1 (6.3) n (%)
  Dyspnea, Treatment-related TEAEs, Grade 1: 1 (6.3) n (%)
  Dyspnea, Treatment-related TEAEs, Grade 2: 0 n (%)
  Dyspnea, Treatment-related TEAEs, Grade ≥3: 0 n (%)
  Fatigue, TEAEs, All grades: 4 (25.0) n (%)
  Fatigue, TEAEs, Grade 1: 3 (18.8) n (%)
  Fatigue, TEAEs, Grade 2: 0 n (%)
  Fatigue, TEAEs, Grade ≥3: 1 (6.3) n (%)
  Fatigue, Treatment-related TEAEs, All Grades: 2 (12.5) n (%)
  Fatigue, Treatment-related TEAEs, Grade 1: 2 (12.5) n (%)
  Fatigue, Treatment-related TEAEs, Grade 2: 0 n (%)
  Fatigue, Treatment-related TEAEs, Grade ≥3: 0 n (%)
  Hot flush, TEAEs, All grades: 6 (37.5) n (%)
  Hot flush, TEAEs, Grade 1: 6 (37.5) n (%)
  Hot flush, TEAEs, Grade 2: 0 n (%)
  Hot flush, TEAEs, Grade ≥3: 0 n (%)
  Hot flush, Treatment-related TEAEs, All Grades: 5 (31.3) n (%)
  Hot flush, Treatment-related TEAEs, Grade 1: 5 (31.3) n (%)
  Hot flush, Treatment-related TEAEs, Grade 2: 0 n (%)
  Hot flush, Treatment-related TEAEs, Grade ≥3: 0 n (%)
  Hypoesthesia, TEAEs, All grades: 3 (18.8) n (%)
  Hypoesthesia, TEAEs, Grade 1: 3 (18.8) n (%)
  Hypoesthesia, TEAEs, Grade 2: 0 n (%)
  Hypoesthesia, TEAEs, Grade ≥3: 0 n (%)
  Hypoesthesia, Treatment-related TEAEs, All Grades: 0 n (%)
  Hypoesthesia, Treatment-related TEAEs, Grade 1: 0 n (%)
  Hypoesthesia, Treatment-related TEAEs, Grade 2: 0 n (%)
  Hypoesthesia, Treatment-related TEAEs, Grade ≥3: 0 n (%)
  Nausea, TEAEs, All grades: 6 (37.5) n (%)
  Nausea, TEAEs, Grade 1: 3 (18.8) n (%)
  Nausea, TEAEs, Grade 2: 3 (18.8) n (%)
  Nausea, TEAEs, Grade ≥3: 0 n (%)
  Nausea, Treatment-related TEAEs, All Grades: 4 (25.0) n (%)
  Nausea, Treatment-related TEAEs, Grade 1: 3 (18.8) n (%)
  Nausea, Treatment-related TEAEs, Grade 2: 1 (6.3) n (%)
  Nausea, Treatment-related TEAEs, Grade ≥3: 0 n (%)
  Night sweat, TEAEs, All grades: 3 (18.8) n (%)
  Night sweat, TEAEs, Grade 1: 3 (18.8) n (%)
  Night sweat, TEAEs, Grade 2: 0 n (%)
  Night sweat, TEAEs, Grade ≥3: 0 n (%)
  Night sweat, Treatment-related TEAEs, All Grades: 3 (18.8) n (%)
  Night sweat, Treatment-related TEAEs, Grade 1: 3 (18.8) n (%)
  Night sweat, Treatment-related TEAEs, Grade 2: 0 n (%)
  Night sweat, Treatment-related TEAEs, Grade ≥3: 0 n (%)
  Urinary tract infection, TEAEs, All grades: 4 (25.0) n (%)
  Urinary tract infection, TEAEs, Grade 1: 0 n (%)
  Urinary tract infection, TEAEs, Grade 2: 3 (18.8) n (%)
  Urinary tract infection, TEAEs, Grade ≥3: 1 (6.3) n (%)
  Urinary tract infection, Treatment-related TEAEs, All Grades: 0 n (%)
  Urinary tract infection, Treatment-related TEAEs, Grade 1: 0 n (%)
  Urinary tract infection, Treatment-related TEAEs, Grade 2: 0 n (%)
  Urinary tract infection, Treatment-related TEAEs, Grade ≥3: 0 n (%)
Part A, Grade 1 palpitations and Grade 2 prolonged QT interval
  cardiac non-treatment-related TEAEs: 2 patients
Part A, Grade 1 photophobia
  eye disorder treatment-related TEAE: 1 patient
Part A, associated with disease progression, considered unrelated to amcenestrant
  serious TEAEs: three patients
Part B
  TEAE leading to treatment discontinuation: one Grade ≥3 TEAE of pneumonia led to treatment discontinuation
  eye disorder non-treatment-related TEAEs: Three eye disorder non-treatment-related TEAEs were reported in two patients
Part B / overall, by investigator
  serious TEAEs related to amcenestrant: none were considered related to amcenestrant; also recorded: No serious AEs were considered treatment-related
Part B, 400 mg QD (N = 49)
  ALT increased, TEAEs, All grades: 3 (6.1) n (%)
  ALT increased, TEAEs, Grade 1: 0 n (%)
  ALT increased, TEAEs, Grade 2: 0 n (%)
  ALT increased, TEAEs, Grade ≥3: 3 (6.1) n (%)
  ALT increased, Treatment-related TEAEs, All Grades: 0 n (%)
  ALT increased, Treatment-related TEAEs, Grade 1: 0 n (%)
  ALT increased, Treatment-related TEAEs, Grade 2: 0 n (%)
  ALT increased, Treatment-related TEAEs, Grade ≥3: 0 n (%)
  AST increased, TEAEs, All grades: 3 (6.1) n (%)
  AST increased, TEAEs, Grade 1: 0 n (%)
  AST increased, TEAEs, Grade 2: 0 n (%)
  AST increased, TEAEs, Grade ≥3: 3 (6.1) n (%)
  AST increased, Treatment-related TEAEs, All Grades: 0 n (%)
  AST increased, Treatment-related TEAEs, Grade 1: 0 n (%)
  AST increased, Treatment-related TEAEs, Grade 2: 0 n (%)
  AST increased, Treatment-related TEAEs, Grade ≥3: 0 n (%)
  Abdominal pain upper, TEAEs, All grades: 6 (12.2) n (%)
  Abdominal pain upper, TEAEs, Grade 1: 2 (4.1) n (%)
  Abdominal pain upper, TEAEs, Grade 2: 4 (8.2) n (%)
  Abdominal pain upper, TEAEs, Grade ≥3: 0 n (%)
  Abdominal pain upper, Treatment-related TEAEs, All Grades: 1 (2.0) n (%)
  Abdominal pain upper, Treatment-related TEAEs, Grade 1: 1 (2.0) n (%)
  Abdominal pain upper, Treatment-related TEAEs, Grade 2: 0 n (%)
  Abdominal pain upper, Treatment-related TEAEs, Grade ≥3: 0 n (%)
  Abdominal pain, TEAEs, All grades: 11 (22.4) n (%)
  Abdominal pain, TEAEs, Grade 1: 8 (16.3) n (%)
  Abdominal pain, TEAEs, Grade 2: 3 (6.1) n (%)
  Abdominal pain, TEAEs, Grade ≥3: 0 n (%)
  Abdominal pain, Treatment-related TEAEs, All Grades: 2 (4.1) n (%)
  Abdominal pain, Treatment-related TEAEs, Grade 1: 2 (4.1) n (%)
  Abdominal pain, Treatment-related TEAEs, Grade 2: 0 n (%)
  Abdominal pain, Treatment-related TEAEs, Grade ≥3: 0 n (%)
  Any TEAE, TEAEs, All grades: 49 (100) n (%)
  Any TEAE, TEAEs, Grade 1: 11 (22.4) n (%)
  Any TEAE, TEAEs, Grade 2: 22 (44.9) n (%)
  Any TEAE, TEAEs, Grade ≥3: 16 (32.7) n (%)
  Any TEAE, Treatment-related TEAEs, All Grades: 26 (53.1) n (%)
  Any TEAE, Treatment-related TEAEs, Grade 1: 21 (42.9) n (%)
  Any TEAE, Treatment-related TEAEs, Grade 2: 5 (10.2) n (%)
  Any TEAE, Treatment-related TEAEs, Grade ≥3: 0 n (%)
  Arthralgia, TEAEs, All grades: 10 (20.4) n (%)
  Arthralgia, TEAEs, Grade 1: 7 (14.3) n (%)
  Arthralgia, TEAEs, Grade 2: 3 (6.1) n (%)
  Arthralgia, TEAEs, Grade ≥3: 0 n (%)
  Arthralgia, Treatment-related TEAEs, All Grades: 4 (8.2) n (%)
  Arthralgia, Treatment-related TEAEs, Grade 1: 3 (6.1) n (%)
  Arthralgia, Treatment-related TEAEs, Grade 2: 1 (2.0) n (%)
  Arthralgia, Treatment-related TEAEs, Grade ≥3: 0 n (%)
  Asthenia, TEAEs, All grades: 10 (20.4) n (%)
  Asthenia, TEAEs, Grade 1: 7 (14.3) n (%)
  Asthenia, TEAEs, Grade 2: 3 (6.1) n (%)
  Asthenia, TEAEs, Grade ≥3: 0 n (%)
  Asthenia, Treatment-related TEAEs, All Grades: 2 (4.1) n (%)
  Asthenia, Treatment-related TEAEs, Grade 1: 2 (4.1) n (%)
  Asthenia, Treatment-related TEAEs, Grade 2: 0 n (%)
  Asthenia, Treatment-related TEAEs, Grade ≥3: 0 n (%)
